# Results as given in publication PMC10541198, “Specific quinone reductase 2 inhibitors reduce metabolic burden and reverse Alzheimer’s disease phenotype in mice” (The Journal of Clinical Investigation, 2023).
# Where “and” joins values, the source holds several entries; their conditions need not be identical. Equal entries are not always repeated. Where two headings read alike, the source gives them in different places.
# Assay: Pharmacokinetic study, IV and PO, plasma, brain and liver
# Type: in vivo, mouse
# Conditions: for tolerability / adverse effects: 50 mg/kg p.o. or 10 mg/kg i.v., up to 24 hours; for Plasma concentration, Mean: BQL = below LLOQ (10 ng/ml); for k el: read-out: Kel (Lambda_z) (converted); for MRT inf: read-out: MRT (MRTinf) (converted); for MRT last: read-out: MRT (MRTlast) (converted); for AUC(0-inf): read-out: AUC0→∞ (AUCINF_obs) (converted)
# Protocol: The purpose of this study was to determine the pharmacokinetic characteristics of compound NG-537 in C57BL/6J mice following intravenous (IV) and peroral (PO) administration. Levels of NG-537 were determined in blood plasma , brain and liver over time after a single dose .
# 3.1 Reagents and consumables
# DMSO Chromasolv Plus, HPLC grade, ≥99.7% (Sigma-Aldrich, USA; Cat #34869) Acetonitrile Chromasolv, gradient grade, for HPLC, ≥99.9% (Sigma-Aldrich, USA; Cat #34851) Methanol Chromasolv Plus, for HPLC, ≥99.9% (Sigma -Aldrich, USA; Cat 34860) Formic acid for mass spectrometry, ~98% (Fluka, USA; Cat #94318)
# Physiological saline (“Yuria -Pharm”, Ukraine, S/# AA13249/1 -1)
# Amyl alcohol (UOS, Ukraine) […]
# Compound Thiamethoxam was used as internal standard (IS).
# Compound NG-537 was supplied as dry powder. The batches of working formulations were prepared 20 min prior to the in vivo study. The vehicle was saline. To prepare the formulation, saline was added to the test compound. The mixture was vortexed for 1 min.
# Gradient HPLC system (Shimadzu, Japan)
# MS/MS detector API 3000 PE with TurboIonSpray Electrospray module (PE Sciex, Canada) VWR Membrane Nitrogen Generators N2-04-L1466. nitrogen purity 99%+ (VWR, USA) Water purification system Millipore Milli-Q Gradient A10 (Millipore, France) Fixed Speed Vortex Mixer “IKA Lab Dancer” (IKA®-Werke GmbH & Co. KG, Germany; IP-40) Centrifuge 4-15C (Qiagen) (Sigma, Germany)
# Ultrasonic bath (Daihan, Korea; WUC-A03H)
# (1 picture or pasted object on this page, not shown here)
# Study design, animal selection, handling and treatment were all in accordance with the Enamine PK study protocols and the Institutional Animal Care and Use Guidelines. Animal treatment and plasma samples preparation were conducted by the Animal Laboratory personnel at Enamine/Bienta. Male C57BL/6J mice (9-11 weeks old, body weight from 26.1 g to 39.8 g and average body weight across all groups 31.9 g SD = 3.3 g) were used in this study. The animals were randomly assigned to the treatment groups before the pharmacokinetic study; all animals were fasted for 4 h before dosing. Seven time points (5, 15, 30, 60, 240, 480, and 1440 min) were set for this pharmacokinet ic study. Each of the time point treatment group included 4 animals. There was also control group of one animal . Dosing was done according to the treatment schedule outlined in Table 1. Mice were injected IP with 2,2,2-tribromoethanol at the dose of 250 mg/kg prior to drawing the blood. Blood collection was performed from the left ventricle of the heart in tubes containing 10 μl of heparin solution (400 ui/ml). The brain and liver were perfused before sampling. The animal died due to exsanguination during perfusion under anesthesia. All samples were immediately processed, flash-frozen and stored at -70°C until subsequent analysis.
# Number of Delivery Target Dose Target Dose Target Dose
# Mice Compound ID Formulation Route Level Concentration Volume […]
# Plasma samples (40 μl) were mixed with 200 μl of IS solution. After mixing by pipetting and centrifuging for 4 min at 6,000 rpm, 2 μl of each supernatant was injected into LC-MS/MS system.
# Solution of compound Thiamethoxam (400 ng/ml in water-methanol mixture 1:9, v/v) was used as internal standard (IS) for quantification of NG-537 in plasma samples.
# Analyses of samples were conducted by the Bioanalytical Laboratory personnel at Enamine/Bienta.
# Concentrations of NG-537 were determined using high performance liquid chromatography/tandem mass spectrometry (HPLC-MS/MS). Shimadzu HPLC system consisted 2 isocratic pumps LC-10ADvp, an autosampler SIL-20AC, a sub-controller FCV-14AH and a degasser DGU-14A. Mass spectrometric analysis was performed using API 3000 (triple-quadrupole) instrument from AB Sciex (Canada) with an electro -spray (ESI) interface. The data acquisition and system control was performed using Analyst 1.5.2 software (AB […]
# 3.6 HPLC-MS/MS Conditions
# Chromatographic Conditions: […]
# [1] = IV 10 mg/kg, 15 min, listed as NG-537, 10 mg/kg
# [2] = PO 50 mg/kg, 15 min, listed as NG-537, 50 mg/kg
# [3] = male, C57BL/6J, mouse, brain, PO 50 mg/kg
# [4] = male, C57BL/6J, mouse, liver, PO 50 mg/kg
# [5] = male, C57BL/6J, mouse, plasma, IV 10 mg/kg
# [6] = male, C57BL/6J, mouse, plasma, PO 50 mg/kg
compound,measurement,setting,value
Cc1ccc(-c2cn3cccc(C)c3n2)cc1S(=O)(=O)N1CCNCC1 [YB-537],tolerability / adverse effects,,nontoxic and well tolerated
same,tolerability / adverse effects,listed as NG-537,No obvious adverse effects were observed
same,bioavailability,"C57BL/6J, mouse, in vivo, PO 50 mg/kg vs IV 10 mg/kg, male mice",82%
same,"Liver concentration, Mouse A-D",[1],17352 ng/g and 12944 ng/g and 10288 ng/g
same,"Plasma concentration, Mouse A-D",[1],1001 ng/mL and 1370 ng/mL and 836 ng/mL
same,"Plasma concentration, Mean","IV 10 mg/kg, 240 min",BQL
same,"Plasma concentration, Mouse A-D","IV 10 mg/kg, 240 min, all four BQL",BQL
same,"Plasma concentration, Mean","IV 10 mg/kg, 480 min",BQL
same,"Plasma concentration, Mouse A-D","IV 10 mg/kg, 480 min, all four BQL",BQL
same,"Plasma concentration, Mean","IV 10 mg/kg, 1440 min",BQL
same,"Plasma concentration, Mouse A-D","IV 10 mg/kg, 1440 min, all four BQL",BQL
same,"Brain concentration, Mouse A-D",[2],227 ng/g and 139 ng/g and 162 ng/g
same,"Plasma concentration, Mouse A-D",[2],1721 ng/mL and 2715 ng/mL and 1977 ng/mL
same,"Plasma concentration, Mouse A-D","PO 50 mg/kg, 30 min, listed as NG-537, 50 mg/kg",1258 ng/mL and 2296 ng/mL and 1618 ng/mL
same,"Brain concentration, Mouse A-D","PO 50 mg/kg, 60 min, listed as NG-537, 50 mg/kg",158 ng/g and 264 ng/g and 241 ng/g
same,"Plasma concentration, Mean","PO 50 mg/kg, 480 min",BQL
same,"Plasma concentration, Mean","PO 50 mg/kg, 1440 min",BQL
same,"Plasma concentration, Mouse A-D","PO 50 mg/kg, 1440 min, all four BQL",BQL
same,AUC0→t=240min (AUClast),"brain, PO 50 mg/kg",30500 ng·min/g
same,AUC0→∞ (AUCINF_obs),"brain, PO 50 mg/kg",33100 ng·min/g
same,time of peak brain concentration after oral administration,"brain, PO 50 mg/kg",approximately one
same,time of peak brain concentration following p.o. administration,"brain, PO 50 mg/kg",1 h
same,"peak brain concentration, molar equivalent","brain, oral administration, equivalent of 203 ng/g",approximately 500 nM
same,AUC0→t=240min (AUClast),"liver, PO 50 mg/kg",5530000 ng·min/g
same,AUC0→∞ (AUCINF_obs),"liver, PO 50 mg/kg",5850000 ng·min/g
same,concentration at 15 min,"male, C57BL/6J, mouse, brain, iv, 10 mg/kg, IV 10 mg/kg, 15 min, read-out: Brain concentration, Mean",1070 ng/g
same,concentration at 15 min,"male, C57BL/6J, mouse, brain, po, 50 mg/kg, PO 50 mg/kg, 15 min, read-out: Brain concentration, Mean",172 ng/g
same,concentration at 15 min,"male, C57BL/6J, mouse, brain, po, 50 mg/kg, PO 50 mg/kg, 15 min, read-out: Brain concentration, Mouse A-D",161 ng/g
same,concentration at 60 min,"male, C57BL/6J, mouse, brain, po, 50 mg/kg, PO 50 mg/kg, 60 min, read-out: Brain concentration, Mean",203 ng/g
same,concentration at 60 min,"male, C57BL/6J, mouse, brain, po, 50 mg/kg, PO 50 mg/kg, 60 min, read-out: Brain concentration, Mouse A-D",148 ng/g
same,concentration at 240 min,"male, C57BL/6J, mouse, brain, po, 50 mg/kg, PO 50 mg/kg, 240 min, BQL = below LLOQ, read-out: Brain concentration, Mouse A-D",37 ng/g
same,concentration at 240 min,"male, C57BL/6J, mouse, brain, po, 50 mg/kg, PO 50 mg/kg, 240 min, read-out: Brain concentration, Mean",28 ng/g
same,half-life,"male, C57BL/6J, mouse, in vivo, po, 50 mg/kg, brain, PO 50 mg/kg, read-out: T1/2 (HL_Lambda_z)",63.5 min
same,half-life,"male, C57BL/6J, mouse, in vivo, po, 50 mg/kg, mouse brain, acute oral dosing, read-out: clearance half life (converted)",~60 min
same,concentration at 15 min,"male, C57BL/6J, mouse, liver, iv, 10 mg/kg, IV 10 mg/kg, 15 min, read-out: Liver concentration, Mean",13100 ng/g
same,concentration at 15 min,"male, C57BL/6J, mouse, liver, iv, 10 mg/kg, IV 10 mg/kg, 15 min, read-out: Liver concentration, Mouse A-D",12000 ng/g
same,concentration at 15 min,"male, C57BL/6J, mouse, liver, po, 50 mg/kg, PO 50 mg/kg, 15 min, read-out: Liver concentration, Mean",67700 ng/g
same,concentration at 60 min,"male, C57BL/6J, mouse, liver, po, 50 mg/kg, PO 50 mg/kg, 60 min, read-out: Liver concentration, Mean",28000 ng/g
same,concentration at 240 min,"male, C57BL/6J, mouse, liver, po, 50 mg/kg, PO 50 mg/kg, 240 min, read-out: Liver concentration, Mean",3900 ng/g
same,concentration at 5 min,"male, C57BL/6J, mouse, plasma, iv, 10 mg/kg, IV 10 mg/kg",2010 ng/mL
same,concentration at 15 min,"male, C57BL/6J, mouse, plasma, iv, 10 mg/kg, IV 10 mg/kg, 15 min, read-out: Plasma concentration, Mean",1020 ng/mL
same,concentration at 15 min,"male, C57BL/6J, mouse, plasma, iv, 10 mg/kg, IV 10 mg/kg, 15 min, read-out: Plasma concentration, Mouse A-D",863 ng/mL
same,concentration at 30 min,"male, C57BL/6J, mouse, plasma, iv, 10 mg/kg, IV 10 mg/kg, 30 min, read-out: Plasma concentration, Mean",432 ng/mL
same,concentration at 60 min,"male, C57BL/6J, mouse, plasma, iv, 10 mg/kg, IV 10 mg/kg, 60 min, read-out: Plasma concentration, Mean",191 ng/mL
same,concentration at 5 min,"male, C57BL/6J, mouse, plasma, po, 50 mg/kg, PO 50 mg/kg",451 ng/mL
same,concentration at 15 min,"male, C57BL/6J, mouse, plasma, po, 50 mg/kg, PO 50 mg/kg, 15 min, read-out: Plasma concentration, Mean",2030 ng/mL
same,concentration at 15 min,"male, C57BL/6J, mouse, plasma, po, 50 mg/kg, PO 50 mg/kg, 15 min, read-out: Plasma concentration, Mouse A-D",1720 ng/mL
same,concentration at 30 min,"male, C57BL/6J, mouse, plasma, po, 50 mg/kg, PO 50 mg/kg, 30 min, read-out: Plasma concentration, Mean",1720 ng/mL
same,concentration at 30 min,"male, C57BL/6J, mouse, plasma, po, 50 mg/kg, PO 50 mg/kg, 30 min, read-out: Plasma concentration, Mouse A-D",1730 ng/mL
same,concentration at 60 min,"male, C57BL/6J, mouse, plasma, po, 50 mg/kg, PO 50 mg/kg, 60 min, read-out: Plasma concentration, Mean",1130 ng/mL
same,concentration at 240 min,"male, C57BL/6J, mouse, plasma, po, 50 mg/kg, PO 50 mg/kg, 240 min, read-out: Plasma concentration, Mean",151 ng/mL
same,concentration at 480 min,"male, C57BL/6J, mouse, plasma, po, 50 mg/kg, PO 50 mg/kg, 480 min, three BQL, 15 marked as Grubbs outlier, read-out: Plasma concentration, Mouse A-D",15 ng/mL
same,Tmax,[3],60 min
same,Cmax,"male, C57BL/6J, mouse, brain, PO 50 mg/kg, read-out: Cmax (peak concentration)",203 ng/g
same,k el,[3],0.000182 s⁻¹
same,MRT inf,[3],88.2 min
same,MRT last,[3],67.5 min
same,Tmax,[4],15 min
same,Cmax,"male, C57BL/6J, mouse, liver, PO 50 mg/kg, read-out: Cmax",67700 ng/g
same,k el,[4],0.000203 s⁻¹
same,MRT inf,[4],69.5 min
same,MRT last,[4],54.9 min
same,half-life,"male, C57BL/6J, mouse, liver, PO 50 mg/kg, read-out: T1/2 (HL_Lambda_z)",56.8 min
same,C0,[5],2820 ng/mL
same,AUC(0-t),"male, C57BL/6J, mouse, plasma, IV 10 mg/kg, read-out: AUC0→t=60min (AUClast) (converted)",790 ng·h/mL
same,AUC(0-inf),[5],867 ng·h/mL
same,clearance,"male, C57BL/6J, mouse, plasma, IV 10 mg/kg, read-out: CL (Cl_obs)",190 mL/min/kg
same,k el,[5],0.000695 s⁻¹
same,MRT inf,[5],21.4 min
same,MRT last,[5],15.4 min
same,half-life,"male, C57BL/6J, mouse, plasma, IV 10 mg/kg, read-out: T1/2 (HL_Lambda_z)",16.6 min
same,Vd,"male, C57BL/6J, mouse, plasma, IV 10 mg/kg, read-out: Vd (Vz_obs)",5 L/kg
same,Tmax,[6],15 min
same,AUC(0-t),"male, C57BL/6J, mouse, plasma, PO 50 mg/kg, read-out: AUC0→t=240min (AUClast) (converted)",3330 ng·h/mL
same,AUC(0-inf),[6],3550 ng·h/mL
same,Cmax,"male, C57BL/6J, mouse, plasma, PO 50 mg/kg, read-out: Cmax",2030 ng/mL
same,k el,[6],0.000192 s⁻¹
same,MRT inf,[6],76.2 min
same,MRT last,[6],59.8 min
same,Cmax,"plasma, IV 10 mg/kg (summary table)",2010 ng/ml(g)
